Experimental data published in patent publication US6995164B2, “Methods of treating tumors” (Rhode Island Hospital, priority 1999, dated 2006).
“Also recorded” adds a separate entry of the source.

Key:
SKOV-3 [1] = experiment: Western-blot analysis of PARP cleavage; format: cell-based, human; details: 24 h exposure to 50 or 100 μM
Protocol: (§1) Two×10^6 cells were seeded in 150 cm^2 tissue culture flasks. […] After an additional twenty-four hours, cells were harvested, cell number determined, and aliquots derived from equal cell numbers generated from each exposure condition. Total proteins from these whole cell lysates were separated by SDS-PAGE and transferred to nitrocellulose filters. Filters were then immunoblotted to detect intact PARP protein and cleavage fragments by using the clone C-2-10 mouse monoclonal anti-PARP antibody (Zymed Laboratories, San Francisco, Calif.). The resulting protein-antibody complexes were visualized by chemiluminescence techniques.
(§2) Western-blot analysis was used to assess of PARP cleavage. Two×10^6 cells were seeded into separate 75 cm^2 tissue culture flasks containing 20 ml of tissue culture media plus serum. […] Twenty-four hours after the addition of Taurolidine, cells were harvested, cell number determined, and aliquots containing an equal cell number were generated from each exposure condition. Total proteins from whole cell lysates generated from these aliquots were separated by SDS-PAGE and electrotransferred to nitrocellulose filters. Filters were then processed to detect intact PARP protein and cleavage fragments by using the clone C-2-10 mouse monoclonal anti-PARP antibody (Zymed Laboratories, San Francisco, Calif.). […]

PA-1 [2] = experiment: Western-blot analysis of PARP cleavage; format: cell-based, human; details: 24 h exposure to 50 or 100 μM
Protocol: as §1, §2

tumor cells = experiment: Apoptosis of tumor cells in culture; format: cell-based
glioblastoma multiforma = experiment: Clinical use, intravenous infusion in advanced recurrent glioblastoma multiforma; format: in vivo, human; details: 20 g i.v. over 6 hours twice a week, at least one 5 week regimen
Protocol: Four patients, which were diagnosed with advanced recurrent glioblastoma multiforma, were treated with taurolidine. The prognosis for this group of patients was determined to be approximately 8 weeks of survival.

[3] = test system: aerobic and anaerobic bacterial strains; details: depending on the bacterial strain evaluated; cited from earlier work
3T3 cells = experiment: Cell cycle kinetics and DNA fragmentation after 24-hour exposure; format: cell-based
From the text: (§3) This DNA fragmentation was not observed in normal 3T3 cells.

PA1 human ovarian cells = experiment: as above; format: cell-based
From the text: as §3

[4] = Clinical tolerability (i.p. lavage in recurrent ovarian tumors, systemic in glioblastoma); format: in vivo, human; details: i.p. lavage after surgery (ovarian) or systemic (glioblastoma)
Protocol: Taurolidine was administered by i.p. lavage immediately following surgery for removal of recurrent ovarian tumors. For patients with glioblastoma, Taurolidine was administered systemically.

[5] = Taurolidine-induced toxicity, 3 consecutive daily i.p. bolus injections; format: in vivo
Protocol: (§4) Studies to assess in vivo toxicity and therapeutic effectiveness were carried out in 6–12 week old female homozygous athymic (Hsd:athymic nude nu/nu) mice obtained from Harlan (Indianapolis, Ind.).
Control animals received 1 ml injections of 5% Kollidon 17PF alone. Animals were examined daily and body weight recorded twice weekly. A reduction in body weight of greater than 10% was considered significant. The maximally tolerated dose (MTD) was considered to be the dose which produced ˜10% mortality.
During the injection regimen, and daily thereafter for 30 d, mice were weighed and examined. Experiments were repeated a minimum of three times and mortality and weight loss data pooled.

[6] = test system: normal murine bone marrow cultures; experiment: Cytotoxic and apoptotic activity in normal primary cells; format: cell-based
From the text: This observation was confirmed using normal (non-tumor) primary cells derived from animals, which are known to be free of tumors.

[7] = test system: human ovarian tumor cells; experiment: Growth of established tumor cell colonies in vitro; format: cell-based; details: 24-hour exposure to 50 μM
Protocol: (§5) Parallel studies were carried out to assess whether disruption of cell adhesion played a role in the cytotoxic activity.

[8] = test system: panel of human and murine neoplastic cell lines; experiment: Cell growth inhibition across the cell line panel; format: cell-based; details: 72 h, 3 d exposure; panel of human and murine tumor cell lines; read-out: IC50s, range over all cell lines evaluated
Protocol: Included in the tumor cell line panel were ovarian tumor cells (PA-1 and SKOV-3), colon tumor cells (HCT-8, HCT-15 and HT-29), lung tumor cells (H-157, A-549 and H-596), prostate tumor cells (DU-145), glioma cells (U-251), and melanoma (MNT-1). The murine melanoma B16F10 cell line was also tested. These cell lines readily available, e.g., from the American Type Culture Collection (ATCC). Cells were cultured in appropriate growth medium at 37° C. in a humidified incubator in an atmosphere of 5% CO2. Under these growth conditions, the doubling time of all cell lines was 20–28 h.
One ml of this cell suspension was added to each well of a 12 well cell culture plate that contained 3 ml of appropriate media plus serum. […] Control wells received 40 μl of 5% Kollidon 17PF alone. Seventy-two hours later, all cells were harvested by trypsinization and cell number determined electronically using a Coulter Model Z1 particle counter (Coulter Corp., Miami, Fla.) to assess cell growth inhibition. Each experiment was performed in duplicate and repeated a minimum of three times.
Cells were seeded at a density of 1–5×10^4 cells in each well of a 6 well tissue culture flask. […] After three days, cells were harvested by trypsinization and cell number determined electronically. Cell growth inhibition was determined by comparison to non-Taurolidine exposed control cultures. […]

[9] = test system: MDR-transfected glioblastoma cells; experiment: Cytotoxicity to drug resistant tumor cells
From the text: Glioblastoma cells were transfected with a gene encoding multiple drug resistance (MDR).

[10] = test system: HL-60 human promyelocytic cell line; experiment: Apoptosis induction in non-adherent cancer cell model; format: cell-based
PA-1 [11] = experiment: Cell cycle distribution and sub-G0/G1 DNA debris by flow cytometry (propidium iodide); format: cell-based, human
Protocol: Three×10^5 cells were seeded in plastic tissue culture flasks. […] Control cultures received an appropriate volume of Kollidine-17P. […] The percentage of DNA debris in the sub-G0/G1 region was assessed using cytofluorometric techniques.
(§6) For flow cytometry studies, 1×10^6 PA-1, SKOV-3, or NIH-3T3 cells were incubated for 24 h in appropriate media containing serum. […] Control cultures for each cell line were incubated in media containing 40 μl of 5% Kollidon 17PF alone. Forty-eight hours later, all cells were harvested by trypsinization and prepared for cytofluorometric analysis by standard methods. For example, harvested cells were resuspended in ice cold phosphate-buffered saline at a final cell density of 2×10^6 cells/ml. The cells then were stained for 30 min at room temperature in the dark with a solution of 0.05 mg/ml propidium iodide, 0.6% Igepal, and 1% sodium citrate. Flow cytometry was performed by FACScan (Becton Dickinson, Plymouth, England) using the ModFit LT program (Becton Dickinson). Statistical analysis was performed with the Kruskal Wallis non-parametric ANOVA test followed by Dunn's multiple comparisons test using Instat.
(§7) Three×10^5 cells were seeded in plastic tissue culture flasks. […] After an additional 48 h, cells were harvested, stained with propidium iodide, and cell cycle distribution assessed using cytofluorometric techniques. […]

SKOV-3 [12] = experiment: as above; format: cell-based, human; details: 48 h exposure
Protocol: (§8) Three×10^5 cells were seeded in plastic tissue culture flasks. […] Control cultures received an appropriate volume of Kollidine-17P. […] The percentage of DNA debris in the sub-G0/G1 region was assessed using cytofluorometric techniques. Each bar represents the mean (±SE) of three determinations. **p≦0.01, ***p≦0.001, ****p≦0.0001
as §6, with “Statistical analysis was performed with the Kruskal Wallis non-parametric ANOVA test followed by Dunn's multiple comparisons test using Instat.” left out
as §7

NIH-3T3 [13] = experiment: Western-blot analysis of PARP cleavage; format: cell-based, murine; details: 24 h exposure to 50 or 100 μM
Protocol: as §1, §2

[14] = test system: SKOV-3 human ovarian tumor xenografts; experiment: Therapeutic effectiveness against i.p. human ovarian tumor xenografts; format: in vivo, female nude mice
From the text: Fourteen days following the final Taurolidine injection, mice in all groups were sacrificed and the peritoneal cavity examined for the presence of tumors. Each experimental was repeated three times and the pooled number of animals in each group ranged from 15–21.
Fourteen days following the final Taurolidine injection, mice in all groups were sacrificed, i.p. ovarian tumor xenografts removed and tumor weighed. Each experiment was repeated three times and the pooled number of animals in each group ranged from 15–21. Each bar represents the mean (±SE) tumor weight of 15–21 animals. ***p≦0.001, ****p≦0.0001.
as §4
To evaluate therapeutic effectiveness, mice received a single intraperitoneal injection of 5×10^6 SKOV-3 cells in a volume of 0.5 ml. Immediately thereafter, mice were randomly divided into treatment groups of 7 animals. […] Control animals received 1 ml injections of 5% Kollidon 17PF alone. Animals were examined daily and body weight recorded twice weekly. […] The mean tumor weight for each treatment group was calculated and statistical analysis of differences in the mean tumor weight between treatment groups employed the Student's t-test. p-values of ≦0.05 were considered significant.

NIH-3T3 [15] = experiment: Cell cycle distribution and sub-G0/G1 DNA debris by flow cytometry (propidium iodide); format: cell-based, murine; details: 48 h exposure
Protocol: as §8
as §6, with “Statistical analysis was performed with the Kruskal Wallis non-parametric ANOVA test followed by Dunn's multiple comparisons test using Instat.” left out
as §7

[16] = test system: TNF; interleukins 1, 6, and 10; VEGF; TGF; experiment: Angiogenesis factors in patients with metastatic colon cancer; format: in vivo, human; details: taurolidine-treated subjects compared to placebo
Protocol: Patients with metastatic colon cancer were treated with taurolidine and several factors controlling angiogenesis were measured.

human cancer cell lines = experiment: In vitro cytotoxic activity survey of human cancer cell lines; format: cell-based
Protocol: as §5

O=S1(=O)CCN(CN2CCS(=O)(=O)NC2)CN1 [Taurolidine, Bis-(1,1-dioxoperhydro-1,2,4-thiadiazinyl-4)methane]
PARP cleavage (SKOV-3 [1]): induced PARP cleavage; also recorded: resulted in PARP cleavage
PARP cleavage (PA-1 [2]): induced PARP cleavage; also recorded: resulted in PARP cleavage
incubation time after which apoptosis is induced (tumor cells): one
patients in whom the tumor mass decreased or stayed the same (glioblastoma multiforma): 3 out of the 4
minimum concentration required to inhibit bacterial cell growth (MIC) [3]: 10 to 1000 µg/mL
cell cycle kinetics (3T3 cells): significantly reduced the percentage of cells in both the S- and G2/M-phases
DNA fragmentation (3T3 cells; 50 μM, flow cytometry and agarose-gel electrophoresis): not observed; also recorded: not apparent
cell cycle kinetics (PA1 human ovarian cells; PA1): significantly reduced the percentage of cells in both the S- and G2/M-phases
DNA fragmentation (PA1 human ovarian cells; human ovarian tumor cells, 50 μM, flow cytometry and agarose-gel electrophoresis): induced a high degree of DNA fragmentation; also recorded: overt DNA fragmentation
tolerability in patients [4]: well tolerated
mortality (%) ([5]; 10 mg/mouse/inj i.p. on 3 consecutive days): 6%
mortality (%) ([5]; 20 mg/mouse/inj i.p. on 3 consecutive days): 13%
mortality (%) ([5]; 25 mg/mouse/inj i.p. on 3 consecutive days): 47%
mortality (%) ([5]; 30 mg/mouse/inj i.p. on 3 consecutive days): 100%
maximally tolerated dose (MTD) ([5]; mouse, in vivo, ip): 20 mg/mouse
concentration required to inhibit cell proliferation [6]: concentrations in the mM range were required to inhibit cell proliferation
cytotoxic effect against the growth of established tumor cells [7]: significant cytotoxic effect
IC50 [8]: 9.6 to 34.2 µM
cytotoxicity ([9]; MDR-transfected glioblastoma cells, 50 μM): Significant cytotoxicity
exposure time that induces apoptosis ([10]; HL-60): ≤ 90 min
apoptosis pathway events ([10]; non-adherent cancer cell models): activation of caspases 3, 8 and 9
effect on cell cycle distribution (in words) (PA-1 [11]; 48 h exposure to up to 100 μM): little effect on cell cycle distribution
DNA debris in the sub-G0/G1 region (PA-1 [11]; 48 h exposure, concentration-dependent): significantly increased DNA debris in the sub-G0/G1 region; also recorded: appearance of DNA debris in the sub-G0G1 region
effect on cell cycle distribution (in words) (SKOV-3 [12]): concentration-dependent decrease in the percentage of cells in G0/G1 but increased the percentage of cells in both the S-phase and G2/M
DNA debris in the sub-G0/G1 region (SKOV-3 [12]; concentration-dependent): significantly increased DNA debris in the sub-G0/G1 region; also recorded: appearance of DNA debris in the sub-G0G1 region
PARP cleavage (NIH-3T3 [13]): little evidence of this proteolytic event
PARP cleavage (NIH-3T3 [13]; listed as taurolidine): PARP cleavage was not evident
tumor formation, ascites development and growth ([14]; 3 d 20 mg/mouse regimen initiated on the day of tumor cell injection): highly effective and inhibited tumor formation
tumor growth inhibition ([14]; single cycle initiated 5 d after tumor cell injection (established i.p. tumors)): capable of significantly inhibiting tumor growth
mean tumor size in treated mice versus controls ([14]; therapy delayed for up to 3 d after tumor cell injection): significantly smaller than in controls
DNA debris in the sub-G0/G1 region (NIH-3T3 [15]): did not increase DNA debris in sub-G0/G1 region; also recorded: did not significantly affect the appearance of DNA debris
effect on cell cycle distribution (in words) (NIH-3T3 [15]): decreased the percentage of cells in G0/G1 and increased the percentage of cells in S in a concentration-dependent manner
factors controlling the growth of blood vessels (TNF; interleukins 1, 6, 10; VEGF; TGF) [16]: decreased

COc1cccc2c1C(=O)c1c(O)c3c(c(O)c1C2=O)C[C@@](O)(C(=O)CO)C[C@@H]3O[C@H]1C[C@H](N)[C@H](O)[C@H](C)O1 [adriamycin]
resistance of transfected cells to standard chemotherapeutic agents ([9]; MDR-transfected versus untransfected glioblastoma cells): 100–1000 times

O=S1(=O)CCNCN1 [taurultam]
induction of apoptotic death (human cancer cell lines; cancer cells versus normal control cells): induced apoptotic death of cancer cells but not normal control cells
cytotoxic activity relative to taurolidine (human cancer cell lines; same human cancer cell lines as for taurolidine): approximately 75%
